Earlier results in US9872927B2, “Dye solution” (FLUORON GMBH, priority 2008, dated 2018).

Key:
[1] = dye of U.S. Pat. No. 7,014,991
[2] = test system: eukaryotes

O=C1/C(=C2\Nc3ccc(S(=O)(=O)O)cc3C2=O)Nc2ccc(S(=O)(=O)O)cc21 [indigotindisulfonate]
cytotoxicity [1]: cytotoxic

[2H]O[2H] [Heavy water, D2O]
concentration in water tolerated by eukaryotes [2]: ≤ 20% | irritation in the area of application [2]: does not lead to any irritation
